Each structure is given as a SMILES string.

The record followed here is patent US20260062426A1, “CYCLIN DEPENDENT KINASE DEGRADERS AND METHODS OF USE THEREOF” (Differentiated Therapeutics Inc, priority 2023, published 2026).

Common to all, as to assay type: cell-based
Assay [1] addresses T1, CDK2 (Homo sapiens, UniProt P24941).
T1 construct: host or cells: HEK293
Briefly: CDK2 HIBIT PQ (protein quantification), degradation. The note with it: for CDK2 HIBIT PQ Max (%): Max = Maximum; for DC50: PQ = Protein Quantification. In outline:
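After overnight incubation at 37° C and 5% CO2 in 384-well plates (1.6×10^5 cells/well, 50 uL, DMEM with 10% FBS), HEK293 cells with HiBiT-tagged CDK2 were treated with compound for 6 hours. Detection used 20 μL of Nano-Glo HiBiT lytic reagent with LgBiT protein, 20 minutes of shaking at room temperature and an EnVision reading, with 0.1% DMSO as high control and medium alone as low control. These readings were the basis for DC50 and maximal degradation.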

Assay [2] deals with T2, CDK9 (Homo sapiens, UniProt P50750).
T2 construct: host or cells: HEK293
Nature of the assay: CDK9 HIBIT PQ (protein quantification), degradation. Particulars: for Dmax / CDK9 HIBIT PQ Max (%): Max = Maximum; for DC50: PQ = Protein Quantification. In outline: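 CDK9 protein was read by HiBiT assay in treated HEK293 cells carrying HiBiT-tagged CDK9, seeded at 1.6×10^5 cells/well in 50 uL in 384-well plates and incubated overnight at 37° C and 5% CO2. Controls were 0.1% DMSO-treated cells (high) and culture medium only (low). Maximal degradation, Dmax and DC50 were calculated from these readings.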

Assay [3] concerns the target T3, CCNE1 (Homo sapiens, UniProt P24864+P24941).
T3 construct: host or cells: HEK293
Nature of the assay: CCNE1 HIBIT PQ (protein quantification), degradation. Particulars: for CCNE1 HIBIT PQ Max (%): Max = Maximum; for DC50: PQ = Protein Quantification. In outline:
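Compound was applied for 6 hours to HEK293 cells expressing HiBiT-tagged CCNE1, which had been seeded overnight in 384-well plates at 1.6×10⁵ cells/well. CCNE1 protein was then read by HiBiT assay against a high control of 0.1% DMSO-treated cells and a low control of medium only. These readings gave DC50 and maximal degradation.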

T2 sequence (P50750 whole entry): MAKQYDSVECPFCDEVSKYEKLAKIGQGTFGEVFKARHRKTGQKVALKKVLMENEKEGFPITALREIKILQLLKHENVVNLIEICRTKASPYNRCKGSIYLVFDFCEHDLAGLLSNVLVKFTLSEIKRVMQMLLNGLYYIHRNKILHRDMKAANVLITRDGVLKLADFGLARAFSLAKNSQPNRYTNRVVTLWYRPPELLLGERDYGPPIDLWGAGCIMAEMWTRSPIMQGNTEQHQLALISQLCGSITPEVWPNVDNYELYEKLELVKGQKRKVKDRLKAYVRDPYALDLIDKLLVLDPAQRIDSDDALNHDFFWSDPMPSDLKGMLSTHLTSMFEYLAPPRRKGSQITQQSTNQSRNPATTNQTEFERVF

For orientation: DC50 means the midpoint of the concentration-degradation curve. Low values mean a more potent degrader, high ones a less potent degrader. In general, Dmax refers to the greatest extent of degradation seen. As to `CC(C)Oc1c(-c2cn[nH]c2)ncn2nc(Nc3ccc(S(=O)(=O)c4ccc(CN5CCC(c6ccc7c(c6)n(C)c(=O)n7[C@H]6CCC(=O)NC6=O)CC5)o4)cc3F)nc12` [Compound 73], in assay [1], the “CDK2 HIBIT PQ Max (%)” value came to 79% and the DC50 is 0.8 nM. The Dmax in assay [2] was 31%. Also, the “CCNE1 HIBIT PQ Max (%)” value in assay [3] is on record as 27%.

With `CC(C)Oc1c(-c2cn[nH]c2)ncn2nc(N[C@H]3CCN(S(=O)(=O)c4cccc(CN5CCN(c6ccc7c(N8CCC(=O)NC8=O)nn(C)c7c6)CC5(C)C)c4)C[C@H]3C)nc12` [Compound 52], in assay [1], the “CDK2 HIBIT PQ Max (%)” value was determined as 98% and half-maximal degradation (DC50) was put at 2.8 nM. Also, in assay [2], the Dmax amounted to 93% and the DC50 was found to be 38.7 nM. Moreover, in assay [3], the “CCNE1 HIBIT PQ Max (%)” value amounted to 93% and the DC50 was found to be 13.8 nM.

In the case of `CC(C)Oc1c(-c2cn[nH]c2)ncn2nc(Nc3ccc(S(=O)(=O)N4CCC[C@H](CN5CC[C@@H](c6ccc7c(N8CCC(=O)NC8=O)nn(C)c7c6)CC5(C)C)C4)cc3F)nc12` (single isomer, unassigned) [Compound 102], in assay [1], the “CDK2 HIBIT PQ Max (%)” value is 90% and it took 0.5 nM to reach half-maximal degradation (DC50). In addition, in assay [2], the “CDK9 HIBIT PQ Max (%)” value is reported as 75% and the DC50 came to 5.65 nM. Besides, in assay [3], the “CCNE1 HIBIT PQ Max (%)” value came out at 76% and the DC50 was 1.34 nM.

Consider `CC(C)Oc1c(-c2cn[nH]c2)ncn2nc(Nc3ccc(S(=O)(=O)N4CC5(CCCN(CC6CCN(c7cccc8c7n(C)c(=O)n8C7CCC(=O)NC7=O)CC6)C5)C4)cc3F)nc12` (racemic) [Compound 76], for which, in assay [1], the “CDK2 HIBIT PQ Max (%)” value is 87% and the DC50 was 5.8 nM. The Dmax in assay [2] was found to be 46%. Further, the “CCNE1 HIBIT PQ Max (%)” value in assay [3] is reported as 40%.

As to `CC(C)Oc1c(-c2cn[nH]c2)ncn2nc(Nc3ccc(S(=O)(=O)N4CC5C4CCN5CC4CCN(c5cccc6c5n(C)c(=O)n6C5CCC(=O)NC5=O)CC4)cc3F)nc12` (stereo not shown) [Compound 74], in assay [1], the “CDK2 HIBIT PQ Max (%)” value is reported as 91% and the DC50 was 0.7 nM. Further, in assay [2], the Dmax stood at 88% and the DC50 was 7.04 nM. Further, in assay [3], the “CCNE1 HIBIT PQ Max (%)” value is 71% and the DC50 came to 3.57 nM.

As to `Cc1c(S(=O)(=O)N(C)CCCN2CCC(c3ccc4c(c3)n(C)c(=O)n4C3CCC(=O)NC3=O)CC2)ccc(Nc2nc3c(OC(C)C)c(-c4cn[nH]c4)ncn3n2)c1F` (racemic) [Compound 55, rac-(R)-N-(3-(4-(1-(2,6-dioxopiperidin-3-yl)-3-methyl-2-oxo-2,3-dihydro-1H-benzo[d]imidazol-5-yl)piperidin-1-yl)propyl)-3-fluoro-4-((8-isopropoxy-7-(1H-pyrazol-4-yl)-[1,2,4]triazolo[1,5-c]pyrimidin-2-yl)amino)-N,2-dimethylbenzenesulfonamide], in assay [1], the “CDK2 HIBIT PQ Max (%)” value is reported as 91% and the DC50 amounted to 0.1 nM. Moreover, in assay [2], the Dmax amounted to 83% and the DC50 stood at 1.13 nM. Besides, in assay [3], the “CCNE1 HIBIT PQ Max (%)” value worked out at 76% and it took 0.51 nM to reach half-maximal degradation (DC50).

For the compound `CC(C)Oc1c(-c2cn[nH]c2)ncn2nc(Nc3ccc(S(=O)(=O)c4cccc(CN5CCN(c6ccc7c(N8CCC(=O)NC8=O)nn(C)c7c6)CC5(C)C)c4)cc3F)nc12` [Compound 47], in assay [1], the “CDK2 HIBIT PQ Max (%)” value was determined as 97% and it took 6.2 nM to reach half-maximal degradation (DC50). Further, in assay [2], the Dmax was determined as 74% and half-maximal degradation (DC50) was put at 136 nM. For the same compound, in assay [3], the “CCNE1 HIBIT PQ Max (%)” value came out at 72% and the DC50 was 55 nM.

As for `CC(C)Oc1c(-c2cn[nH]c2)ncn2nc(NC3CCN(S(=O)(=O)c4cccc(CN5CC6(C5)CN(c5ccc7c(c5)CN(C5CCC(=O)NC5=O)C7=O)C6)c4)CC3)nc12` (racemic) [Compound 2], the “CDK2 HIBIT PQ Max (%)” value in assay [1] is listed as 46%. For the same compound, in assay [2], the Dmax stood at 92% and half-maximal degradation (DC50) was put at 25.7 nM. The “CCNE1 HIBIT PQ Max (%)” value in assay [3] was determined as 41%.

For `CC(C)Oc1c(-c2cn[nH]c2)ncn2nc(Nc3ccc(S(=O)(=O)N(C)CCCN4C5CCC4CN(c4ccc6c(c4)n(C)c(=O)n6C4CCC(=O)NC4=O)C5)cc3F)nc12` (stereo not shown) [Compound 68], in assay [1], the “CDK2 HIBIT PQ Max (%)” value turned out to be 90% and it took 0.1 nM to reach half-maximal degradation (DC50). For the same compound, in assay [2], the Dmax was 73% and the DC50 worked out at 2.76 nM. Besides, in assay [3], the “CCNE1 HIBIT PQ Max (%)” value was 67% and the DC50 was determined as 1.05 nM.

Turning to `CC(C)Oc1c(-c2cn[nH]c2)ncn2nc(NC3CCN(S(=O)(=O)c4cccc(CN5CCN(c6cc7c(cc6F)C(=O)N(C6CCC(=O)NC6=O)C7)CC5)c4)CC3)nc12` (racemic) [Compound 3], in assay [1], the “CDK2 HIBIT PQ Max (%)” value was found to be 66% and half-maximal degradation (DC50) was put at 3.12 nM. Further, in assay [2], the Dmax came to 102% and the DC50 worked out at 19.4 nM. In assay [3], the “CCNE1 HIBIT PQ Max (%)” value was 64% and half-maximal degradation (DC50) was put at 8.88 nM.

Consider `CC(C)Oc1c(-c2cn[nH]c2)ncn2nc(Nc3ccc(S(=O)(=O)N(C)CCCN4CCC(c5ccc6c(N7CCC(=O)NC7=O)nn(C)c6c5)CC4)cc3F)nc12` [Compound 15], for which, in assay [1], the “CDK2 HIBIT PQ Max (%)” value was 95% and the DC50 came to 0.35 nM. In assay [2], the Dmax is 99% and half-maximal degradation (DC50) was put at 1.37 nM. Besides, in assay [3], the “CCNE1 HIBIT PQ Max (%)” value stood at 93% and the DC50 was determined as 0.72 nM.

On to `CC(C)Oc1c(-c2cn[nH]c2)ncn2nc(Nc3ccc(S(=O)(=O)N4CCCC(CN5CCC(c6ccc7c(N8CCC(=O)NC8=O)nn(C)c7c6)CC5)C4)cc3F)nc12` (single isomer, unassigned) [Compound 95], for which, in assay [1], the “CDK2 HIBIT PQ Max (%)” value was 83% and the DC50 was 0.5 nM. Further, in assay [2], the “CDK9 HIBIT PQ Max (%)” value turned out to be 71% and the DC50 stood at 7.24 nM. In addition, in assay [3], the “CCNE1 HIBIT PQ Max (%)” value is reported as 67% and the DC50 was 1.02 nM.

On to `CC(C)Oc1c(-c2cn[nH]c2)ncn2nc(Nc3ccc(S(=O)(=O)c4cccc(C(C)N5CCN(c6ccc7c(N8CCC(=O)NC8=O)nn(C)c7c6)C6CC65)c4)cc3F)nc12` (stereo not shown) [Compound 83], for which, in assay [1], the “CDK2 HIBIT PQ Max (%)” value worked out at 89% and the DC50 amounted to 7.6 nM. For the same compound, in assay [2], the Dmax was determined as 23%. Further, in assay [3], the “CCNE1 HIBIT PQ Max (%)” value is reported as 28%.

Take `CC(C)Oc1c(-c2cn[nH]c2)ncn2nc(Nc3ccc(S(=O)(=O)c4cccc(CC5CC(c6ccc7c(N8CCC(=O)NC8=O)nn(C)c7c6)C5)c4)cc3F)nc12` (stereo not shown) [Compound 33, 1-(6-(3-(3-((3-fluoro-4-((8-isopropoxy-7-(1H-pyrazol-4-yl)-[1,2,4]triazolo[1,5-c]pyrimidin-2-yl)amino)phenyl)sulfonyl)benzyl)cyclobutyl)-1-methyl-1H-indazol-3-yl)dihydropyrimidine-2,4(1H,3H)-dione]: in assay [1], the “CDK2 HIBIT PQ Max (%)” value is given as 91% and the DC50 was 19 nM. In addition, the Dmax in assay [2] worked out at 9%. Moreover, the “CCNE1 HIBIT PQ Max (%)” value in assay [3] is given as 47%.

For the compound `CC(C)Oc1c(-c2cn[nH]c2)ncn2nc(Nc3ccc(S(=O)(=O)c4cccc(CN5C6CCC5CN(c5ccc7c(N8CCC(=O)NC8=O)nn(C)c7c5)C6)c4)cc3F)nc12` [Compound 46], in assay [1], the “CDK2 HIBIT PQ Max (%)” value is recorded as 95% and the DC50 was 3.6 nM. Further, in assay [2], the Dmax amounted to 71% and the DC50 is 92.1 nM. The “CCNE1 HIBIT PQ Max (%)” value in assay [3] is reported as 48%.
